Assay [1] relates to Nisin Z-producing strain (parent strain). Description: Growth of parent strain on Nisin-containing M17 medium (MIC). It is filed as cell-based, Lactococcus lactis. Conditions: 30° C., 2 days. On the procedure:
A Nisin Z-producing strain (parent strain shown in Table 3) separated from its native environment was plated on M17 medium (manufactured by Difco) prepared such that a Nisin concentration became 1,000, 2,000, 5,000 or 10,000 IU/mL, and was cultured at 30° C. for 2 days. This strain grew in M17 medium having a Nisin concentration of 1,000 or 2,000 IU/mL, but not in M17 medium having a Nisin concentration of 5,000 or 10,000 IU/mL. From the results, it was confirmed that the minimum growth inhibitory concentration (MIC) of this strain to Nisin was 5,000 IU/mL.

Assay [2] deals with Nisin Z-producing lactic acid bacteria (mutated strain). Put plainly: Growth of NTG-mutated Nisin Z-producing lactic acid bacteria in Nisin-containing M17 medium. It is filed as cell-based, Lactococcus lactis. On the procedure:
The Nisin Z-producing lactic acid bacteria separated from its native environment were precultured in M17 medium, and the lactic acid bacteria were treated with 500 μg/mL of NTG to induce mutation.

With Nisin, the “minimum growth inhibitory concentration (MIC) of this strain to Nisin” value in assay [1] was 5,000 IU/mL. For the same substance, the Growth number in assay [2] (Nisin conc. 1,000 IU/ml) was 1.20E+09 cell/ml; in assay [2] (Nisin conc. 2,000 IU/ml), 1.20E+09 cell/ml; in assay [2] (Nisin conc. 4,000 IU/ml), 1.20E+09 cell/ml; in assay [2] (Nisin conc. 8,000 IU/ml) it was 7.00E+08 cell/ml; in assay [2] (Nisin conc. 10,000 IU/ml), 1.14E+08 cell/ml; in assay [2] (Nisin conc. 20,000 IU/ml), 3.21E+07 cell/ml. For the same substance, the figures for the Growth number in assay [2] (Nisin conc. 40,000 IU/ml), in assay [2] (Nisin conc. 80,000 IU/ml) and in assay [2] (Nisin conc. 100,000 IU/ml) were 9.35E+05 cell/ml, 1.16E+03 cell/ml and 4.76E+02 cell/ml, respectively.

Source of the values: patent US20090136624A1, “LACTIC ACID BACTERIA PRODUCING NISIN AT HIGH CONCENTRATION AND METHOD FOR SELECTING THE SAME” (Ajinomoto Co., Inc., priority 2004, published 2009).
